One data set addresses T1, human ERβ (Homo sapiens, UniProt Q92731).
T1 construct: M214-Q530 of human ERβ; Flag (C); made in house; host or cells: E. coli BL21(DE3), clarified lysate
Briefly: Radioligand binding competition with [3H]-17β-estradiol, ERβ. The note with it: human ERβ ligand binding domain, E. coli lysate, read-out: ER-β IC50.

The next data set has as its target T2, human ERα (Homo sapiens, UniProt P03372).
T2 construct: amino acids M250-V595 of human ERα; His (N); made in house; host or cells: E. coli BL21(DE3), clarified lysate
T2 sequence (P03372 250-595): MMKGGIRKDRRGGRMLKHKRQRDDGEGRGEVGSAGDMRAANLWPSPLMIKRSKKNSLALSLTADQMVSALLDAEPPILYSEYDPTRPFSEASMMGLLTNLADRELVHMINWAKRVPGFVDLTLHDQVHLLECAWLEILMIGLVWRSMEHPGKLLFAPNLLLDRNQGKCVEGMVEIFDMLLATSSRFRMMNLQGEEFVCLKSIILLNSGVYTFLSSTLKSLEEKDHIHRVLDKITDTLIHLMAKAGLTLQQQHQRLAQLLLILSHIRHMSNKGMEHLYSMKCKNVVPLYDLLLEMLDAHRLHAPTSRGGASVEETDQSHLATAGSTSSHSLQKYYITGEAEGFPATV
Description: Radioligand binding competition with [3H]-17β-estradiol, ERα. The settings on record: human ERα ligand binding domain, E. coli lysate, read-out: ER-α IC50.

T1 sequence (Q92731 214-530): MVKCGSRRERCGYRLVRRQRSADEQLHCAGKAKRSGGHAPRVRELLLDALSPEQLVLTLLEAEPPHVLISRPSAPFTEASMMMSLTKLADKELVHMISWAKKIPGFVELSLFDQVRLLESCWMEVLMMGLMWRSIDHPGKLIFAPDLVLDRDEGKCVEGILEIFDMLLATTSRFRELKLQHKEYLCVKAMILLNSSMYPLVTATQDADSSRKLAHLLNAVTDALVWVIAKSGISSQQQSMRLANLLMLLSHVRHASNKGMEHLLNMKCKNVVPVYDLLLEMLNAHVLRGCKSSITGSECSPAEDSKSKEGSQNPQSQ

One may read the IC50 as the concentration that gives 50% inhibition. Broadly, the melting point is the temperature, or range, at which the solid turns liquid. Compound `Oc1ccc(O)c(-c2noc3cc(O)ccc23)c1` [Example 10, 2-(6-Hydroxy-1,2-benzisoxazol-3-yl)benzene-1,4-diol] gave a melting point of 215 to 217 °C. Further, the half-maximal inhibitory concentration (IC50) at human ERβ was found to be 254 nM. Moreover, the IC50 on human ERα amounted to 3000 nM.

Turning to `Oc1ccc2c(-c3ccccc3O)noc2c1` [Example 9, 3-(2-Hydroxyphenyl)-1,2-benzisoxazol-6-ol], the IC50 at human ERα is 5000 nM.

Consider `CCCc1cc(-c2noc3cc(O)ccc23)c(CC(C)C)cc1O` [Example 4, 3-(4-Hydroxy-2-isobutyl-5-propylphenyl)-1,2-benzisoxazol-6-ol], for which the half-inhibitory concentration (IC50) on human ERβ was 20 nM; at human ERα it was 38 nM.

`Oc1ccc(-c2noc3c(Br)cc(O)cc23)cc1` [Example 13, 7-Bromo-3-(4-hydroxyphenyl)-1,2-benzisoxazol-5-ol] gave a melting point of 267 to 270 °C. Besides, the concentration for half-maximal inhibition (IC50) on human ERβ was determined as 208 nM. For the same compound, the IC50 on human ERα turned out to be 2000 nM.
